# In ChEMBL document CHEMBL1201862, “PubChem BioAssay data set” (2004):
# “And” between values parts separate entries of the source, which are not always exact repeats. Equal values may be shown once.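 How tested: cells in 96-well plates exposed to compound for 48 hours at five concentrations. GI50 marks 50% less growth.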 The source made the active and inactive calls. Cut-off read from the data, not from the text of the source: active = GI50 up to about 1.1 µM and inactive = higher.
# Key:
# Assay in all cases: NCI tumour cell line growth inhibition, 48 h
# [1] = system: 786-0
# [2] = system: A498
# [3] = system: ACHN
# [4] = system: CAKI-1
# [5] = system: CCRF-CEM
# [6] = system: DMS-273
# [7] = system: HL-60
# [8] = system: HOP-62
# [9] = system: HOP-92
# [10] = system: HT-29
# [11] = system: IGROV-1
# [12] = system: K562
# [13] = system: KM-20L2
# [14] = system: KM12
# [15] = system: LXFL 529
# [16] = system: MOLT-4
# [17] = system: Malme-3M
# [18] = system: NCI-H226
# [19] = system: OVCAR-4
# [20] = system: OVCAR-5
# [21] = system: OVCAR-8
# [22] = system: RXF 393
# [23] = system: RXF 631
# [24] = system: SF-268
# [25] = system: SF-295
# [26] = system: SF-539
# [27] = system: SK-OV-3
# [28] = system: SN12C
# [29] = system: SNB-19
# [30] = system: SNB-78
# [31] = system: TK-10
# [32] = system: UACC-257
# [33] = system: UACC-62
# [34] = system: UO-31
# [35] = system: XF498
# [36] = system: A549
# [37] = system: HCC 2998
# [38] = system: HCT-116
# [39] = system: LOX IMVI
# [40] = system: M19-MEL
# [41] = system: NCI-H460
# [42] = system: NCI-H522
# [43] = system: OVCAR-3
# [44] = system: RPMI-8226
# [45] = system: SK-MEL-28
# [46] = system: SNB-75
# [47] = system: SR
# [48] = system: U-251
# [49] = system: DLD-1
# [50] = system: DMS-114
# [51] = system: EKVX
# [52] = system: HCT-15
# [53] = system: M14
# [54] = system: NCI-H23
# [55] = system: SK-MEL-2
# [56] = system: SK-MEL-5
# [57] = system: SW-620
structure (smiles),measurement,setting,value
FC(F)(F)c1cc(C2SCc3nc4ccccc4n32)cc(C(F)(F)F)c1 (stereo not given),GI50,[1],11.4 µM (inactive)
same,GI50,[2],> 100 µM (inactive)
same,GI50,[3],> 100 µM (inactive)
same,GI50,[4],4.24 µM (inactive)
same,GI50,[5],4.51 µM (inactive)
same,GI50,[6],3.65 µM (inactive)
same,GI50,[7],3.87 µM (inactive)
same,GI50,[8],5.5 µM (inactive)
same,GI50,[9],20.4 µM (inactive)
same,GI50,[10],3.46 µM (inactive)
same,GI50,[11],8.13 µM (inactive)
same,GI50,[12],2.97 µM (inactive)
same,GI50,[13],3.37 µM (inactive)
same,GI50,[14],4.68 µM (inactive)
same,GI50,[15],> 100 µM (inactive)
same,GI50,[16],2.97 µM (inactive)
same,GI50,[17],2.92 µM (inactive)
same,GI50,[18],6.41 µM (inactive)
same,GI50,[19],> 100 µM (inactive)
same,GI50,[20],> 100 µM (inactive)
same,GI50,[21],10.3 µM (inactive)
same,GI50,[22],14.8 µM (inactive)
same,GI50,[23],10.6 µM (inactive)
same,GI50,[24],44.9 µM (inactive)
same,GI50,[25],5 µM (inactive)
same,GI50,[26],24.6 µM (inactive)
same,GI50,[27],20.5 µM (inactive)
same,GI50,[28],2.9 µM (inactive)
same,GI50,[29],76 µM (inactive)
same,GI50,[30],36.7 µM (inactive)
same,GI50,[31],> 100 µM (inactive)
same,GI50,[32],> 100 µM (inactive)
same,GI50,[33],3.87 µM (inactive)
same,GI50,[34],> 100 µM (inactive)
same,GI50,[35],8.45 µM (inactive)
CC1OC(n2ncc(=O)[nH]c2=O)C=CC1=O (stereo not given),GI50,[1],36.3 µM (inactive) and 55.2 µM (inactive)
same,GI50,[36],> 100 µM (inactive)
same,GI50,[3],27.9 µM (inactive) and 37.9 µM (inactive)
same,GI50,[4],> 100 µM (inactive)
same,GI50,[37],> 100 µM (inactive)
same,GI50,[38],30.4 µM (inactive) and 55.8 µM (inactive)
same,GI50,[7],26.2 µM (inactive) and 23.7 µM (inactive)
same,GI50,[10],41.8 µM (inactive) and 52.6 µM (inactive)
same,GI50,[11],> 100 µM (inactive)
same,GI50,[12],33.1 µM (inactive) and 44 µM (inactive)
same,GI50,[14],46.1 µM (inactive) and 63 µM (inactive)
same,GI50,[39],> 100 µM (inactive)
same,GI50,[15],> 100 µM (inactive) and 59 µM (inactive)
same,GI50,[40],50.8 µM (inactive) and 71.3 µM (inactive)
same,GI50,[17],22.1 µM (inactive) and 18.8 µM (inactive)
same,GI50,[18],> 100 µM (inactive)
same,GI50,[41],> 100 µM (inactive) and 63.1 µM (inactive)
same,GI50,[42],20 µM (inactive) and 18.8 µM (inactive)
same,GI50,[43],95.3 µM (inactive)
same,GI50,[19],> 100 µM (inactive)
same,GI50,[20],> 100 µM (inactive)
same,GI50,[21],37.3 µM (inactive) and 41.1 µM (inactive)
same,GI50,[44],33 µM (inactive) and 24.3 µM (inactive)
same,GI50,[23],13.1 µM (inactive) and 16.4 µM (inactive)
same,GI50,[25],52.6 µM (inactive)
same,GI50,[26],40.2 µM (inactive) and 24.2 µM (inactive)
same,GI50,[45],31.9 µM (inactive) and 21.8 µM (inactive)
same,GI50,[28],70.3 µM (inactive) and 35.8 µM (inactive)
same,GI50,[46],44.5 µM (inactive) and 55.5 µM (inactive)
same,GI50,[30],21.5 µM (inactive) and 26.9 µM (inactive)
same,GI50,[47],26.7 µM (inactive) and 33.5 µM (inactive)
same,GI50,[31],> 100 µM (inactive) and 71.4 µM (inactive)
same,GI50,[48],50.7 µM (inactive) and 41.2 µM (inactive)
same,GI50,[33],31.8 µM (inactive) and 60.4 µM (inactive)
same,GI50,[34],> 100 µM (inactive)
O=C1CC(c2c(-c3ccccc3)[nH]c3ccccc23)C(=O)N1 (stereo not given),GI50,[1],> 100 µM (inactive)
same,GI50,[2],90.2 µM (inactive)
same,GI50,[36],> 100 µM (inactive)
same,GI50,[3],> 100 µM (inactive)
same,GI50,[4],71.9 µM (inactive)
same,GI50,[5],> 100 µM (inactive)
same,GI50,[49],> 100 µM (inactive)
same,GI50,[50],> 100 µM (inactive)
same,GI50,[6],> 100 µM (inactive)
same,GI50,[51],> 100 µM (inactive)
same,GI50,[37],> 100 µM (inactive)
same,GI50,[38],> 100 µM (inactive)
same,GI50,[52],> 100 µM
same,GI50,[7],> 100 µM (inactive)
same,GI50,[8],> 100 µM (inactive)
same,GI50,[10],> 100 µM (inactive)
same,GI50,[11],> 100 µM (inactive)
same,GI50,[12],> 100 µM (inactive)
same,GI50,[13],> 100 µM (inactive)
same,GI50,[14],> 100 µM (inactive)
same,GI50,[15],> 100 µM (inactive)
same,GI50,[53],> 100 µM (inactive)
same,GI50,[40],> 100 µM (inactive)
same,GI50,[16],> 100 µM (inactive)
same,GI50,[17],> 100 µM (inactive)
same,GI50,[18],> 100 µM (inactive)
same,GI50,[54],> 100 µM (inactive)
same,GI50,[41],> 100 µM (inactive)
same,GI50,[43],> 100 µM (inactive)
same,GI50,[19],> 100 µM (inactive)
same,GI50,[20],> 100 µM (inactive)
same,GI50,[21],> 100 µM (inactive)
same,GI50,[44],> 100 µM (inactive)
same,GI50,[22],> 100 µM (inactive)
same,GI50,[23],> 100 µM (inactive)
same,GI50,[25],> 100 µM (inactive)
same,GI50,[26],> 100 µM (inactive)
same,GI50,[45],> 100 µM (inactive)
same,GI50,[55],> 100 µM (inactive)
same,GI50,[56],> 100 µM (inactive)
same,GI50,[27],> 100 µM (inactive)
same,GI50,[46],35.4 µM (inactive)
same,GI50,[30],> 100 µM (inactive)
same,GI50,[57],> 100 µM (inactive)
same,GI50,[31],> 100 µM (inactive)
same,GI50,[48],> 100 µM (inactive)
same,GI50,[32],> 100 µM (inactive)
same,GI50,[33],89.3 µM (inactive)
same,GI50,[34],76.6 µM (inactive)
same,GI50,[35],> 100 µM (inactive)
